The results in this text go back to ChEMBL document CHEMBL5233266, “β-Carboline as a Privileged Scaffold for Multitarget Strategies in Alzheimer's Disease Therapy” (J Med Chem, 2021).

The target in experiment [1] is 5-hydroxytryptamine receptor 5A (Homo sapiens, UniProt P47898). As to the kind of experiment: Binding affinity to 5-HT5AR (unknown origin) assessed as inhibition constant.
The target in experiment [2] is T1, 5-hydroxytryptamine receptor 2C (Homo sapiens, UniProt P28335).
T1 sequence (P28335 whole entry): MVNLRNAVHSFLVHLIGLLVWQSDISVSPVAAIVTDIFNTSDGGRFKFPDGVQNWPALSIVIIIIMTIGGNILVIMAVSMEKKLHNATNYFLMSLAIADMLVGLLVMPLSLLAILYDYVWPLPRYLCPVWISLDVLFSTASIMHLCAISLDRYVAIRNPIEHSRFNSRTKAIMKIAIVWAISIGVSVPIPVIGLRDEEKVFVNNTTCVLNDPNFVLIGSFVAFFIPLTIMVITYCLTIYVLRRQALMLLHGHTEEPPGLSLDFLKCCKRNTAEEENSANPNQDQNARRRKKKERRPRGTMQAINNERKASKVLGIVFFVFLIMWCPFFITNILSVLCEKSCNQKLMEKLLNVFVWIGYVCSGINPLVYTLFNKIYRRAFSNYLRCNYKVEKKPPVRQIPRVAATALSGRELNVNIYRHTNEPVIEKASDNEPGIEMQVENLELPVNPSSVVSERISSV
As to the kind of experiment: Binding affinity to 5-HT2C (unknown origin) assessed as inhibition constant.

Experiment [3] deals with 5-hydroxytryptamine receptor 2B (Homo sapiens, UniProt P41595). As to the kind of experiment: Binding affinity to 5-HT2BR (unknown origin) assessed as inhibition constant.
Sequence of 5-hydroxytryptamine receptor 2B (P41595 whole entry): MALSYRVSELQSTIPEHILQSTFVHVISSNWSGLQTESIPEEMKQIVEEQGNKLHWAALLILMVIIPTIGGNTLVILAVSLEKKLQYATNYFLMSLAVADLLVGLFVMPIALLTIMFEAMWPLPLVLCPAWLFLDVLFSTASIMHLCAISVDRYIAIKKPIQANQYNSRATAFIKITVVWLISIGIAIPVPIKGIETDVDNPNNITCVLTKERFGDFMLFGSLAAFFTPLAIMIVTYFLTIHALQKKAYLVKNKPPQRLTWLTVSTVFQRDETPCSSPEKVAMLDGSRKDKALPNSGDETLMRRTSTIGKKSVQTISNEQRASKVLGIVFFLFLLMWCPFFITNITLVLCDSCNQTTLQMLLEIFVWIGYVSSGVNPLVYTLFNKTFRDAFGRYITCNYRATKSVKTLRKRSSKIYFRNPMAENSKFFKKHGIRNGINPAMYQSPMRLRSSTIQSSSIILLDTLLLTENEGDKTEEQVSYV
For experiment [4], the target named is cGMP-specific 3',5'-cyclic phosphodiesterase (Homo sapiens, UniProt O76074). Kind of experiment: Binding affinity to PDE5 (unknown origin) assessed as inhibition constant.
Experiment [5] addresses Glutamate receptor ionotropic, NMDA 2B (Homo sapiens, UniProt Q05586+Q13224). As to the kind of experiment: Inhibition of NMDA receptor NR2B subunit (unknown origin).
In experiment [6] the target is T2, Gamma-aminobutyric acid receptor subunit alpha-1 (Homo sapiens, UniProt P14867).
T2 sequence (P14867 whole entry): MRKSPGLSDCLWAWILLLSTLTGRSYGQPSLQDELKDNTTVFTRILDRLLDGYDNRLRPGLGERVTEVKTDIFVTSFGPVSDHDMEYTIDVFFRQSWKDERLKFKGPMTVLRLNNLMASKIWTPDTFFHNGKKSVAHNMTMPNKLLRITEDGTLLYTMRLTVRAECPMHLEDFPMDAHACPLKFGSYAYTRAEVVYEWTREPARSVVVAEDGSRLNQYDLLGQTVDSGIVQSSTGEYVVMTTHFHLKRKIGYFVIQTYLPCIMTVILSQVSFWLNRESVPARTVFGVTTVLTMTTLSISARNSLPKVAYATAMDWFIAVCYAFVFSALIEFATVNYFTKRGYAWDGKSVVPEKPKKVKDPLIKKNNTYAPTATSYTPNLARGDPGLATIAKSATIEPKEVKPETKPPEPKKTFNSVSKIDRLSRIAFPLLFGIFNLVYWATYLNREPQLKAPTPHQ
Kind of experiment: Binding affinity to human recombinant GABAA alpha1 receptor assessed as inhibition constant incubated for 1 hrs by liquid scintillation counting analysis.

Experiment [7] concerns the target T3, Gamma-aminobutyric acid receptor subunit alpha-3 (Homo sapiens, UniProt P34903).
T3 sequence (P34903 whole entry): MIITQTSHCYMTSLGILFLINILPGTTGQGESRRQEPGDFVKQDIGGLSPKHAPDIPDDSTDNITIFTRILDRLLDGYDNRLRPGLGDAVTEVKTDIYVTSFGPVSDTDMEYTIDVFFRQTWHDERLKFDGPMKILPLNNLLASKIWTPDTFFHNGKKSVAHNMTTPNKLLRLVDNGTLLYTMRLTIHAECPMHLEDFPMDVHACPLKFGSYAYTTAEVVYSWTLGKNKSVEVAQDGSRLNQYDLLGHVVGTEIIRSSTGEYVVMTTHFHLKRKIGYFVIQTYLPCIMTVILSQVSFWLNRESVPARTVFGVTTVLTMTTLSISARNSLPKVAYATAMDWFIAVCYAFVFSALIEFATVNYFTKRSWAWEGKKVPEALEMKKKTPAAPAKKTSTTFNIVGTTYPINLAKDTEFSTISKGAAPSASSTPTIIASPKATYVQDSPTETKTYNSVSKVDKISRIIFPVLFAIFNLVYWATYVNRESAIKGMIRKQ
Kind of experiment: Binding affinity to human recombinant GABAA alpha3 receptor assessed as inhibition constant incubated for 1 hrs by liquid scintillation counting analysis.

In experiment [8] the target is Gamma-aminobutyric acid receptor subunit alpha-4 (Homo sapiens, UniProt P48169). As to the kind of experiment: Binding affinity to human recombinant GABAA alpha4 receptor assessed as inhibition constant incubated for 1 hrs by liquid scintillation counting analysis.
Sequence of Gamma-aminobutyric acid receptor subunit alpha-4 (P48169 whole entry): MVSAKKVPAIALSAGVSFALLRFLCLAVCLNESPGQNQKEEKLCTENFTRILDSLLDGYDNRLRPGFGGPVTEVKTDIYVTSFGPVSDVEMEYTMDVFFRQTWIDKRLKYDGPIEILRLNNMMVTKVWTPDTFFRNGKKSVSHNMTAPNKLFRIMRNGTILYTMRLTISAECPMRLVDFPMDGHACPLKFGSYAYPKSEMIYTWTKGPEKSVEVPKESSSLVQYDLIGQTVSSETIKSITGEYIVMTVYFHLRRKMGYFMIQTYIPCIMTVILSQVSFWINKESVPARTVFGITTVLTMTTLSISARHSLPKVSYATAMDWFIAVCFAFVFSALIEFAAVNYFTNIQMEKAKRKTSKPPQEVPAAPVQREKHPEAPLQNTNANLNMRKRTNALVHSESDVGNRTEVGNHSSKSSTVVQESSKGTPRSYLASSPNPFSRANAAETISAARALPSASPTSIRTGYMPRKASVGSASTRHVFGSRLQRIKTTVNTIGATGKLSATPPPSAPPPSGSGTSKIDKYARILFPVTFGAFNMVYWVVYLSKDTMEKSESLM
In experiment [9] the target is T4, Gamma-aminobutyric acid receptor subunit alpha-5 (Homo sapiens, UniProt P31644).
T4 sequence (P31644 whole entry): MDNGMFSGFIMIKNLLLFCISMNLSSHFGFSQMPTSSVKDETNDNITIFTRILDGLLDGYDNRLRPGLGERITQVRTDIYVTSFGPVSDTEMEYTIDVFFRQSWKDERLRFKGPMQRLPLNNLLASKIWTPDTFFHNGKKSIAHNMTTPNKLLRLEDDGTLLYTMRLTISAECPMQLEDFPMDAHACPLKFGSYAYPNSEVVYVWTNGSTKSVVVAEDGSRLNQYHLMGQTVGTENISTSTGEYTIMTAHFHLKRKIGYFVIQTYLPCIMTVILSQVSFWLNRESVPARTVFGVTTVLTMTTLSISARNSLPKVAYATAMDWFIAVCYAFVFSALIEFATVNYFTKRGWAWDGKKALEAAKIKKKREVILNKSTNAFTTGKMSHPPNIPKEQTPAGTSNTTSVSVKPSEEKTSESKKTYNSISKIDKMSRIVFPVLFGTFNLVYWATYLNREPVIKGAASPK
As to the kind of experiment: Binding affinity to human recombinant GABAA alpha5 receptor assessed as inhibition constant incubated for 1 hrs by liquid scintillation counting analysis.

For experiment [10], the target named is Gamma-aminobutyric acid receptor subunit alpha-6 (Homo sapiens, UniProt Q16445). As to the kind of experiment: Binding affinity to human recombinant GABAA alpha6 receptor assessed as inhibition constant incubated for 1 hrs by liquid scintillation counting analysis.
Sequence of Gamma-aminobutyric acid receptor subunit alpha-6 (Q16445 whole entry): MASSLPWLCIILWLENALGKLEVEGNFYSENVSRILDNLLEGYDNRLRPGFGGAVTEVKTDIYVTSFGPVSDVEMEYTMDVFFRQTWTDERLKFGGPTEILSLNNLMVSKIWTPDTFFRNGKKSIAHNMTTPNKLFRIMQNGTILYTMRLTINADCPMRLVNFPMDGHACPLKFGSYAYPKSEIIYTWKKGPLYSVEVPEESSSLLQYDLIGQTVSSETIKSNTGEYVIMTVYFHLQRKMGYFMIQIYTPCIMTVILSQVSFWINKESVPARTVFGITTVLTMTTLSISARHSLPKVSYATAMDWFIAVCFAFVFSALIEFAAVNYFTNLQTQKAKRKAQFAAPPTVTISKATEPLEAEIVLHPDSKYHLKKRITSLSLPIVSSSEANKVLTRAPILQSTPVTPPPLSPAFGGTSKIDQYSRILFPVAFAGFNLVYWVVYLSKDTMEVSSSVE
For experiment [11], the target named is T5, Acetylcholinesterase (Homo sapiens, UniProt P22303). As to the kind of experiment: Inhibition of AChE (unknown origin).
T5 sequence (P22303 whole entry): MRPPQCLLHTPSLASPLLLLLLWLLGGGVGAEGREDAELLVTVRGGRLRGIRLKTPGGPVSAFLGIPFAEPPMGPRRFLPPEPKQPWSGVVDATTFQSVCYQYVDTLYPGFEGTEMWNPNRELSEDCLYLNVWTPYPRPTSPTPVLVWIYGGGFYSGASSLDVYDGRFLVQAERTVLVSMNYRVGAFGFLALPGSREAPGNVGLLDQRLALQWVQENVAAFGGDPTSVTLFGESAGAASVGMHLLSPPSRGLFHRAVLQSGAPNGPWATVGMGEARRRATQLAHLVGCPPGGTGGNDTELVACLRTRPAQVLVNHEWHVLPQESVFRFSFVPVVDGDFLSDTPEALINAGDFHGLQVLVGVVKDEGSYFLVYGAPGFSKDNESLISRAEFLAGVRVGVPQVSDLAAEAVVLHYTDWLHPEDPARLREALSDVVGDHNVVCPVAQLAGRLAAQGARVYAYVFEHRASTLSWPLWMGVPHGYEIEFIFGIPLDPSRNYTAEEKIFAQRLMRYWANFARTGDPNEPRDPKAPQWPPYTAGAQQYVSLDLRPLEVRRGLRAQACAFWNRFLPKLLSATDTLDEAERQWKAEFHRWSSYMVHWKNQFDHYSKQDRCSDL
The target in the next experiment is Cholinesterase (Homo sapiens, UniProt P06276). Kind of experiment: Inhibition of BuChE (unknown origin).
Sequence of Cholinesterase (P06276 whole entry): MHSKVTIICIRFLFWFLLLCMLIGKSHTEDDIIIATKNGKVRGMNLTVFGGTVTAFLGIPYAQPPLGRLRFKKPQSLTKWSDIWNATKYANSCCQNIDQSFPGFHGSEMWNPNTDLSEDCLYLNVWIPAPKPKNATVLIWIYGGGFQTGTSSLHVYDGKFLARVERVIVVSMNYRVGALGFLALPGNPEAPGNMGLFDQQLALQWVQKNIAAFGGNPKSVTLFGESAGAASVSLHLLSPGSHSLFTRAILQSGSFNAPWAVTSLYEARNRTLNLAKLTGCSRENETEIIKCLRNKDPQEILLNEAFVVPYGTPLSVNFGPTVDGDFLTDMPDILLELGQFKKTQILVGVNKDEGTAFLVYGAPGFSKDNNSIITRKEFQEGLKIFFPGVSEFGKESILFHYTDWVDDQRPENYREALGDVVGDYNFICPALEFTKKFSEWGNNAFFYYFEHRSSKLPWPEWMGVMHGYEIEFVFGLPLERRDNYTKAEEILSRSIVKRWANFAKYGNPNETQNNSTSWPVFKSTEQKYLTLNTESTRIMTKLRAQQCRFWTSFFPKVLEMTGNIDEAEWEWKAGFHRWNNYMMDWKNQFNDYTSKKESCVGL
For experiment [12], the target named is T5, Acetylcholinesterase. As to the kind of experiment: Inhibition of AChE (unknown origin) by Ellman's method.
In experiment [13] the target is GABA-A receptor; anion channel. As to the kind of experiment: Displacement of [3H]flunitrazepam from GABAA (unknown origin ) receptor by radioligand binding assay. In kind it is protein-complex assay, Homo sapiens. For orientation: In a radioligand displacement assay an active substance lowers the binding of a labelled ligand.
The target of experiment [14] is T6, Gamma-aminobutyric acid receptor subunit alpha-2 (Homo sapiens, UniProt P47869).
T6 sequence (P47869 whole entry): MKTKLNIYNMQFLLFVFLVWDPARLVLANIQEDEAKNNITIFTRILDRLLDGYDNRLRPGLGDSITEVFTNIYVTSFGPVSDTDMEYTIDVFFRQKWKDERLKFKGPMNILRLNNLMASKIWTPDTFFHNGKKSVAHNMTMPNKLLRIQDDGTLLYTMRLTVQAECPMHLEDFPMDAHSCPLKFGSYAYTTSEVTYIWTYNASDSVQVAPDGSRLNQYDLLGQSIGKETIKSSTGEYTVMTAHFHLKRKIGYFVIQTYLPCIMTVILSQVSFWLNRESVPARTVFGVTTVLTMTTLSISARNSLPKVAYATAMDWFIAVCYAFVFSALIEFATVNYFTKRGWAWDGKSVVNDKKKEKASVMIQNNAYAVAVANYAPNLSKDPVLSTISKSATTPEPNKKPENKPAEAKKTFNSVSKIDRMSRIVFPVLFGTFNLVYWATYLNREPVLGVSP
As to the kind of experiment: Binding affinity to human recombinant GABAA alpha2 receptor assessed as inhibition constant incubated for 1 hrs by liquid scintillation counting analysis.

Experiment [15] concerns the target T5, Acetylcholinesterase. As to the kind of experiment: Inhibition of AChE (unknown origin) incubated for 40 mins by Ellman's method.
Experiment [16] concerns the target Dual specificity tyrosine-phosphorylation-regulated kinase 1A (Homo sapiens, UniProt Q13627). As to the kind of experiment: Inhibition of DYRK1A (unknown origin).

Structures are written as SMILES. A value given as a limit tells only on which side of the number the result lay.

Sequence of Glutamate receptor ionotropic, NMDA 2B (Q13224 whole entry, one chain of several): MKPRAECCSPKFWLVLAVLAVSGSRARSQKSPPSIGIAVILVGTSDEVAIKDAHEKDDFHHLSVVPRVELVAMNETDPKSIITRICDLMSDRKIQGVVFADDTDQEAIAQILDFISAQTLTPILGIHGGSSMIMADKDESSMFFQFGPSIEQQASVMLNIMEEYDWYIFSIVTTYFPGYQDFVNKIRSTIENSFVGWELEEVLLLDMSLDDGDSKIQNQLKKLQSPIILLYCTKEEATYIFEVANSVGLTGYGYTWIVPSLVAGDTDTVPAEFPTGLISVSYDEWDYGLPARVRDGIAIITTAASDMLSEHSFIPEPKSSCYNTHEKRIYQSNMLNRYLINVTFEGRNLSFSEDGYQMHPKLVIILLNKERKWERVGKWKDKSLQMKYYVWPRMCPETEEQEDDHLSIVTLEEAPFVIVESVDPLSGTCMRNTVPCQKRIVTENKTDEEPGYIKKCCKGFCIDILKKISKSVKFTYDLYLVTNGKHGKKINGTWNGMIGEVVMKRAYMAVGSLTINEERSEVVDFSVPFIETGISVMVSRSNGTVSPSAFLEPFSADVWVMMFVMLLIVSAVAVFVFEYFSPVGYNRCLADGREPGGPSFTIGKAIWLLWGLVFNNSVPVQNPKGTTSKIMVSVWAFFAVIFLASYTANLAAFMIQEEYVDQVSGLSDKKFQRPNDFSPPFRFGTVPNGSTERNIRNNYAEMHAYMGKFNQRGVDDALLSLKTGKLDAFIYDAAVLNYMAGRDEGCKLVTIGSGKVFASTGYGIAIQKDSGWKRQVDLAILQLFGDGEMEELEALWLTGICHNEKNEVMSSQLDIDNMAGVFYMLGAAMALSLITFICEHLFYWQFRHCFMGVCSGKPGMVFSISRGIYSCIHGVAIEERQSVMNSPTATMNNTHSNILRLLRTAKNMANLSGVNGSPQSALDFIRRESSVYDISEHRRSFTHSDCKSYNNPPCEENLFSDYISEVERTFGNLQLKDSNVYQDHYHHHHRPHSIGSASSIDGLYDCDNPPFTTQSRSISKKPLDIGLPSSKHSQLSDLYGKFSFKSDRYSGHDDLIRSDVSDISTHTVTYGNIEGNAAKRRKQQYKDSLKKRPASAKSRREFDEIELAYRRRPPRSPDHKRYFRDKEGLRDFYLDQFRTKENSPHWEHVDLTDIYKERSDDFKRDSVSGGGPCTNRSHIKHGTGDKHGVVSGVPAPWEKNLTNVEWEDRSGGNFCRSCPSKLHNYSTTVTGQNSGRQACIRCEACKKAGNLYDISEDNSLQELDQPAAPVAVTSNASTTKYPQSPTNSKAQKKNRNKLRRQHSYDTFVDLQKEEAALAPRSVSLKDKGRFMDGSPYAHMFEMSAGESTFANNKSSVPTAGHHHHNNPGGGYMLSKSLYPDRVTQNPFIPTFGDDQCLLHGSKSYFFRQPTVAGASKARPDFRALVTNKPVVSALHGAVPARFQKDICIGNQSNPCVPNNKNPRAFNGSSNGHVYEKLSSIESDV
Sequence of 5-hydroxytryptamine receptor 5A (P47898 whole entry): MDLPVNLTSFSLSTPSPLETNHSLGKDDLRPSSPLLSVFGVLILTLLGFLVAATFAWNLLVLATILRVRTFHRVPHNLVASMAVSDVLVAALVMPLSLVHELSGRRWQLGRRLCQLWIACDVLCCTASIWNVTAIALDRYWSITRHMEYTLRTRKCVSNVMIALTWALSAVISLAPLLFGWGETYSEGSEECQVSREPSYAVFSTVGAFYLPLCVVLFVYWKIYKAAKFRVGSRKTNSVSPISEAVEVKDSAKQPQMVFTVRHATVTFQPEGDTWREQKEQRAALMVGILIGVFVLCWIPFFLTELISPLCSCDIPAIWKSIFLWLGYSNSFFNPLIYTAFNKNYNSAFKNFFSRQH

Consider `c1ccc2c(-c3nccc4c3[nH]c3ccccc34)c[nH]c2c1`, for which the Ki in experiment [1], in experiment [2] and in experiment [3] was 170 nM throughout.
As to `Nc1ccc(-c2ccc(C(=O)N3CCc4c([nH]c5ccccc45)C3c3ccc4c(c3)OCO4)o2)cc1` (centres undefined), the Ki (usually the dissociation constant of the complex between target and ligand, obtained from inhibition or displacement) in experiment [4] was found to be 64 nM.
On to `c1ccc(C[C@@H]2NCCc3c2[nH]c2ccccc32)cc1`, for which the IC50 (as a rule, the point on the concentration scale where inhibition reaches its midpoint) in [5] was determined as 27000 nM.
Consider `C#Cc1ccc2[nH]c3cnc(C(=O)OC(C)(C)C)cc3c2c1`, for which the inhibitory constant (Ki) in experiment [6] was 1 nM; in experiment [7] it was 100 nM; in experiment [8], 2000 nM; in experiment [9], 210 nM; in experiment [10] it was 2000 nM.
`CCOC(=O)[n+]1ccc2c([nH]c3cc(OC)ccc32)c1C`: the IC50 against Acetylcholinesterase [11] was 250 nM; at Cholinesterase, 1500 nM; against Acetylcholinesterase [12], 250 nM.
Turning to `Oc1ccc(CCCN2CCc3c([nH]c4ccccc34)C2)cc1`, the IC50 in experiment [5] came to 87 nM.
On the same count and under the same terms, with `Oc1ccc2c3c([nH]c2c1)CN(CCCCc1ccccc1)CC3` the figure was 50 nM.
As for `CC(C)CCn1c2c(c3c(O)cc(O)cc31)CCn1c-2nc2ccccc2c1=O`, the Ki in experiment [4] came to 86 nM.
With `CC(C)(C)OC(=O)c1cc2c(cn1)[nH]c1ccccc12`, in experiment [13], the IC50 stood at 1 nM. Moreover, the Ki in experiment [6] was 0.7 nM; in [14] it was 15 nM; in experiment [7], 19 nM; in experiment [8], 1000 nM; in experiment [9] it was 110 nM; in [10], greater than 5000 nM.
In the case of `O=C(c1ccc(-c2ccc([N+](=O)[O-])cc2)o1)N1CCc2c([nH]c3ccccc23)C1c1ccc2c(c1)OCO2` (centres undefined), the Ki in experiment [4] came to 64 nM.
With `CC(C)n1c2ccccc2c2cc[n+](-c3ccccc3)cc21`, the IC50 came to 540 nM against Acetylcholinesterase [11], 37000 nM against Cholinesterase and 3100 nM on Acetylcholinesterase [12].
Regarding `COc1ccc2[nH]c3c(-c4cn(C)c5ccccc45)nccc3c2c1`, the inhibitory constant (Ki) was determined as 100 nM in experiment [1], 200 nM in [2] and 100 nM in experiment [3].
Regarding `Cn1c2ccccc2c2cc[n+](-c3ccc(Br)cc3Br)cc21`, the IC50 against Acetylcholinesterase [12] and against Acetylcholinesterase [15] was 110 nM each time.
Turning to `COc1cccc2[nH]c3c(c12)CCN=C3`, the Ki in experiment [2] is 65 nM.
Molecule `O=C1CCC[C@@H]2c3[nH]c4ccccc4c3C[C@@H](CO)N12` displayed an IC50 in [5] of 30000 nM.
As for `Nc1cccc(-c2ccc(C(=O)N3CCc4c([nH]c5ccccc45)C3c3ccc4c(c3)OCO4)o2)c1` (centres undefined), the Ki in [4] came out at 51 nM.
With `c1ccc(-c2nccc3c2[nH]c2ccccc23)cc1`, the Ki in experiment [1] and in experiment [3] was 1400 nM in each case.
On to `Oc1ccc2[nH]c3c(-c4c[nH]c5ccccc45)nccc3c2c1`, for which the Ki in [1], in experiment [2] and in experiment [3] was 170 nM in each case.
For `c1ccc2cc(-c3nccc4c3[nH]c3ccccc34)ccc2c1`, the Ki in experiment [1] and in experiment [3] was 1500 nM in each case.
For the molecule `COc1cccc2[nH]c3c(c12)CCN=C3C`, the Ki in experiment [2] was found to be 65 nM.
`C[n+]1ccc2c(c1)[nH]c1ccccc12` [NORMELINONINE F]: the figures for the concentration for half-maximal inhibition (IC50) on Cholinesterase and against Acetylcholinesterase [12] were 800 nM and 4100 nM, respectively.
In turn, `COCc1c(C(=O)OC(C)C)ncc2[nH]c3ccc(OCc4ccccc4)cc3c12` [ABECARNIL] registered an IC50 in experiment [13] of 1 nM. In addition, the Ki in [6] came out at 1 nM; in experiment [14], 2 nM; in experiment [7], 4 nM; in experiment [8] it was 1200 nM; in experiment [9], 5 nM; in experiment [10], 6400 nM.
In the case of `COc1ccc(-c2cnc(N3CC(=O)c4c([nH]c5ccccc45)C3c3ccc4c(c3)OCO4)nc2)cc1OC` (centres undefined), the Ki in [4] came out at 9 nM.
In the case of `COC(=O)c1cc2c(cn1)[nH]c1ccccc12` [BETA-CCM], the IC50 in experiment [13] was 1 nM. Also, the Ki in [6] was 2 nM; in [14] it was 7 nM; in experiment [7], 72 nM; in [8], 1000 nM; in [9] it was 44 nM; in [10], 4400 nM.
For `c1ccc2c(c1)[nH]c1cnccc12` [NORHARMANE], the IC50 against Acetylcholinesterase [11] is greater than 40000 nM; against Cholinesterase, greater than 40000 nM; in experiment [16], greater than 1800 nM; in experiment [13], 1600 nM.
On to `CCCOc1cc2c(cn1)[nH]c1ccccc12`, for which the IC50 in experiment [13] amounted to 3 nM. Further, the inhibition constant (Ki) in experiment [14] was 52 nM; in [7], 69 nM; in experiment [8], 1000 nM; in experiment [9], 590 nM; in experiment [10], greater than 1000 nM.
`Oc1ccc2[nH]c3c(c2c1)CCN(CCCCc1ccccc1)C3` gave an IC50 in experiment [5] of 140 nM.
`Cc1ccc2c(c1)c1cc[n+](-c3ccccc3)cc1n2C`: the concentration for half-maximal inhibition (IC50) came out at 420 nM on Acetylcholinesterase [11], 17000 nM at Cholinesterase and 420 nM against Acetylcholinesterase [12].
